One test has as its system M-001 melanoma cells. The experiment in a line: Melanoma tumor progression in Zebra fish larvae. The note with it: Axelopran 10000 nM, 72 hours of growth. The format is in vivo, zebrafish.
The test system of test [1] is Human umbilical vein endothelial cells (HUVEC). The experiment in a line: HUVEC cell tube formation. The format is cell-based. Particulars: 0-1000 nM, 18 hours, absence of exogenous opioids. The protocol: Two independent model systems were used to explore the role of MOR and endogenous opioids on angiogenesis. Human umbilical vein endothelial cells (HUVEC) in culture initiate angiogenesis through tube formation when cultured on an appropriate extracellular matrix. In a living system, the chicken egg chorioallantoic membrane assay (CAM) allows direct visualization of new blood vessel formation.
Specifically, the HUVEC cell tube formation was assessed in the presence of various doses (0-1000 nM) of three different Mu opioid receptor antagonists (axelopran, naloxegol, and methylnaltrexone (MNTX)). For this testing, the HUVEC cells were exposed to the various MOR antagonist concentrations and incubated under the following conditions: Briefly, 50 μL of Matrigel in 96 well plates was loaded to make one layer of extracellular matrix. The plate was kept for 1 hour at 37° C. HUVEC cells were seeded on top of Matrigel (0.02×10^6 cells/well) and waited for 4 h to form tube formation. […] Once tubes formed, cells were treated with increasing amounts of the test compounds (axelopran, naloxegol, and MNTX) and incubated for 18 hours. Cells were stained with Calcein AM and images were captured. The data analysis was performed using NIH imageJ software. Tube length was measure and data was plotted using prism software.

Test [2] has as its system chicken CD3, MMD and CD244. Nature of the test: Immune cell infiltration into CAM breast cancer tumors (RT-qPCR). The format is in vivo. The note with it: axelopran used in the presence of bevacizumab and pembrolizumab. The protocol:
Infiltration of host immune cells into the tumor environment is required for host reduction of tumor progression. Among the tumors collected at E18, after tumor weighing, 10 tumors per group (n=10) were used for RNA extraction, in 6 groups (Gr. 1, 2, 3, 4, 7, and 8). After that, extracted RNA was analyzed by RT-qPCR with specific primers for chicken CD3, MMD and CD244 sequences. For all points done in qPCR, expression of human GAPDH was also analyzed, as reference gene expression, and used to normalize immune biomarker expression between samples. Calculation of Cq for each sample, mean Cq and relative amounts of immune cells for each group were directly managed by the Bio- Rad CFX Maestro software (see FIG. 11).
The infiltration of chicken CD3^+, CD244^+, and MMD^+ immune cells into breast cancer tumors grown on the upper CAM in the presence of axelopran, pembrolizumab, bevacizumab and combinations are shown in FIG. 11.

The test system of test [3] is Mouse colon cancer (MC38) cells. The experiment in a line: Syngeneic mouse colon cancer model. In kind it is in vivo, mice (C57BL6). The procedure: The syngeneic mouse model assay (FIG. 3B) allows a complete system where tumor progression is quantified in the presence of endogenous immune surveillance and an active gut microbiome.
Mouse colon cancer (MC38) cells were amplified in vitro prior to implantation. On the day of injection, cells were harvested, counted including a trypan blue viability dye (cut-off 80%), and resuspended in PBS at the appropriate concentration. The cells were injected subcutaneously in the right flank of Female mice (C57BL6), 5 weeks of age (18-22 gm body weight) at 5.106 cells/mouse in 200 μL PBS within 30 minutes after harvesting. After 15-18 days of tumor growth, mice were randomized into treatment groups at 10 animals/group. Animals were weighed thrice weekly and tumor growth measured using callipers. The tumour volume (TV) was extrapolated to a sphere using the formula shown below: […]
by calculating the mean radius from the two measurements.
The results of these studies are shown in FIG. 12A, 12B, 13 as well as Table 2-3. The tumor growth curves in animals treated with the MOR antagonist, axelopran, mouse anti-PD-1 or a combination of both treatments are shown in FIGS. 12A and 12B. FIG. 12A and FIG. 12B show MC38 colon cancer tumor growth in syngeneic mice treated with Vehicle (Control), axelopran (1 mg/kg, p.o. daily), mouse anti-PD-1 (12.5 mg/kg i.p.,3×-weekly) or axelopran plus anti-PD-1.

Test [4] deals with MDA-MB-231 tumor cell line. Nature of the test: Breast cancer tumor progression in the CAM assay. In kind it is in vivo, chicken. The protocol:
The chicken egg chorioallantoic membrane assay (FIG. 3B) allows for the study of tumor progression of injected tumor cells in the presence of active endogenous immune surveillance, but again in the absence of an active gut microbiome.
Breast cancer cell tumor progression was assessed in the chicken egg, chorioallantoic membrane assay. The experimental timing is shown below in FIG. 9. Fertilized chicken eggs were incubated for 9 days. The MDA-MB-231 tumor cell line was cultivated in D-MEM medium supplemented with 10% FBS and 1% penicillin/streptomycin. On day E9, cells were detached with trypsin, washed with complete medium and suspended in graft medium. An inoculum of 1×10^6 cells was added onto the CAM of each egg (E9) and then eggs were randomized into groups. Tumor cells (breast cancer MDA-MB231 cells (10^6)) were then seeded on the upper CAM and further incubated for 3 three days. Test agents were then added to the same site at selected concentrations. Following five days of further incubation the growing tumor was excised, freed of CAM tissue, and weighed.
For this testing, the chicken eggs were treated with: axelopran; pembrolizumab (Pembro); axelopran+pembrolizumab; bevacizumab (Beva); axelopran+bevacizumab; pembrolizumab+bevacizumab; and axelopran+pembrolizumab+bevacizumab. Axelopran was used at dose of 1.0 mg/kg; pembrolizumab was used at a dose of 2.5 mg/kg; and bevacizumab was used at a dose of 4 mg/kg. The results of this testing are shown in FIG. 10A, 10B, 11 and Table 2-2.

Where [5] appears, read: absence of exogenous opioids, breast cancer.

Take `NC(=O)c1cccc(C2CC3CCC(C2)N3CCN(CC2CCCCC2)C(=O)[C@@H](O)CO)c1` (stereo partly drawn) [axelopran, 3-[(1R,3r,5S)-8-(2-{(cyclohexylmethyl)[(2S)-2,3-dihydroxypropanoyl]amino}ethyl)-8-azabicyclo[3.2.1]octan-3-yl]benzamide]: the “Melanoma tumor progression index (tumor size × metastasis), Mean” value in the test with M-001 melanoma cells stood at 2.41. For the same compound, the “angiogenesis (HUVEC cell tube formation)” value in test [1] is listed as “inhibit angiogenesis”. For the same compound, the “infiltration of CD3+ lymphocytes, CD244+ natural killer cells and MMD+ macrophages into the tumor tissue” value in test [2] was “synergistically enhanced the infiltration”. Also, the “Tumor Size @ day 13, Mean” value in test [3] (axelopran 1 mg/kg p.o. daily, mouse anti-PD-1 12.5 mg/kg i.p. 3×-weekly) was 1,479 mm^3. Moreover, in test [3] (axelopran 1 mg/kg, anti-PD-1), the “Survival, Median” value was 13.0 days. The “Growth Rate, Mean” value in test [3] (initial 8 days of treatments, axelopran 1 mg/kg p.o. daily, mouse anti-PD-1 12.5 mg/kg i.p.) was found to be 84.5 mm^3/day. The “interaction of axelopran activity with anti-PD-1 treatment” value in test [3] (presence of a microbiome, colon cancer) is given as “synergistic”. In addition, in test [4] (5 days of growth in the upper CAM, axelopran 1.0 mg/kg, pembrolizumab 2.5 mg/kg, bevacizumab 4 mg/kg), the “Breast cancer tumor progression index (tumor size × metastasis), Mean” value is given as 0.63 fraction of negative control. Moreover, the “interaction of axelopran activity with anti-PD-1 treatment” value in test [4] (absence of a microbiome, breast cancer) is “additive”. In test [4] (setting [5]), the metastasis entry is given as “inhibits metastasis” and the tumor growth result was “inhibits tumor growth”.

Values taken from patent publication US20250186423A1, “METHODS OF TREATING CANCER AND OTHER CONDITIONS WITH A MU OPIOID RECEPTOR ANTAGONIST” (priority 2022, published 2025).
